In ChEMBL document CHEMBL1145042, “Understanding the structure-activity relationship of the human ether-a-go-go-related gene cardiac K+ channel. A model for bad behavior” (J Med Chem, 2003) one finds MIC data, which are given here for 1 compound.

For the test, the system named is Bacteria. The test can be described thus: Bacterial minimum inhibitory concentration. The format is functional.

The compound `Cc1c(F)c(N2CCNC(C)C2)cc2c1c(=O)c(C(=O)O)cn2C1CC1` (stereo unspecified) [GREPAFLOXACIN] yielded an MIC of less than 2.4 µM.

By MIC is commonly meant the smallest concentration in the dilution series that meets the test's criterion for growth inhibition. The low end stands for greater potency, the high end for weaker potency.
